Patent EP2891491A1, “Use of (r)-phenylpiracetam for the treatment of sleep disorders” (Merz Pharma GmbH & Co. KGaA, priority 2014, dated 2015)

What was measured:
[1] = system: rats; experiment: locomotor activity (horizontal activity) in rats; type: in vivo; settings: i.p. 15 min before test, starting at the dose of 100 mg/kg
Experimental: EXAMPLE 4: Effect of (R)-phenylpiracetam on locomotor activity (horizontal activity) in rats - Fig. 3
Experimentally naive adult male Sprague-Dawley rats (230-300 g) are kept four per cage, in a room with controlled temperature (21 ± 1°C) and humidity. Food and water are available ad libitum and the animals are kept under an alternating 12 h / 12 h day-night cycle (lights on at 07.00) for at least 6 days before the experiments are started. Each animal is used only once. Experimental group consist of 8 animals per group.
Horizontal locomotor activity was measured in 8 perspex boxes (ENV-515-16, 43.2 cm x 43.2 cm x 30 cm), Med-Associates Inc.) equipped with 4 arrays of 16 infrared photobeams placed 3 cm above the floor. Distance travelled (DT) was used in further analysis as a measure of locomotion.
(R)-Phenylpiracetam was administered i. p. in a volume of 2 ml/kg in saline
Data with locomotor activity were analyzed by means of Kruskal-Wallis ANOVA on ranks followed, if significant, by rank sum test.

[2] = system: rats; experiment: electroencephalography (EEG) screen in freely moving rats; type: in vivo
Experimental: EXAMPLE 5: Testing of (R)-phenylpiracetam in an electroencephaloaraphy (EEG) screen - Fig. 4
(R)-Phenylpiracetam was tested at four different concentrations (1 mg/kg, 12.5 mg/kg, 25 mg/kg, and 50 mg/kg) in an EEG screen as described by Dimpfel (Dimpfel, Neuropsychobiology, 58 (2008)178-86).
Eight adult Fisher 344 rats (8 months of age, kept on inverse light-dark cycle, weight about 400 g, provided by Charles River Laboratories, D-97633, Sulzfeld) were used in this experimental series. Animals were implanted with electrodes into the brain and were given two weeks for recovery from surgery. After this the transmitter was plugged in for adaptation and control experiments.
The animals were allowed to acclimatize for at least 4 weeks before the study started. There was automatic control of light cycle, temperature and humidity. Light hours were 18 h in the evening - 6 h in the morning. […] Cages, bedding, and water bottles were changed at regular intervals, i.e. every 2-3 days. Standard diet (Nohrlin H10, Altromin, D-32791 Lage, Germany) was available to the animals ad libitum. The animals had access to domestic quality mains water ad libitum.
Rats were implanted with 4 bipolar concentric steel electrodes within a stereotactic surgical procedure during anaesthesia with ketamine. All four electrodes were placed 3 mm lateral within the left hemisphere. Dorsoventral coordinates were 4, 6, 4.2 and 8 mm and anterior coordinates were 3.7, 9.7, 5.7 and 12.2 mm for frontal cortex, striatum, hippocampus, and reticular formation, respectively (according to the atlas of Paxinos and Watson, 1982). A pre-constructed base plate carrying 4 bipolar stainless steel semi-micro electrodes (neurological electrodes "SNF 100" from Rhodes Medical Instruments, Inc., Summerland, CA 93067, USA) and a 5-pin-plug was fixed to the skull by dental cement interacting with 3 steel screws placed on distance into the bone. The distant recording spot of the electrode was the active electrode whereas the proximal spots of the four electrodes were connected to each other to give a reference. The base plate was carrying a plug to receive later on the transmitter (weight: 5.2 g including battery, 26 mm x 12 mm x 6 mm of size).
EEG signals were recorded from frontal cortex, hippocampus, striatum and reticular formation of freely moving rats from inside a totally copper shielded room. Signals were wirelessly transmitted by a radio-telemetric system (Rhema Labortechnik, Hofheim, Germany, using 40 MHz as carrier frequency) and were amplified and processed as described earlier to give power spectra of 0.25 Hz resolution (Dimpfel et al. 1986; Dimpfel et al. 1988; Dimpfel et al. 1989; Dimpfel, 2003). […]

NC(=O)CN1C[C@@H](c2ccccc2)CC1=O [(R)-phenylpiracetam]
locomotor activity (horizontal activity) [1]: increases locomotor activity | theta, delta, alpha1 and beta2 waves in the reticular formation ([2]; EEG pattern compared with nootropics): no change | alpha2 and beta1 waves ([2]; i.p., 1, 12.5, 25 and 50 mg/kg): dose dependent attenuation | theta power within the frontal cortex ([2]; i.p., highest dosage): increases | Motility ([2]; i.p., video tracking during EEG): increased
